In patent US20260285875A1, “INHIBITORS OF PARG” (858 Therapeutics, Inc., priority 2023, published 2026):

biological target: T1, cellular PARG (Homo sapiens, UniProt Q86W56); assay: Nuclear PAR accumulation assay (immunofluorescence high-content imaging, MMS-treated HeLa cells); type: cell-based; details: 1 hour compound then MMS 50 μg/mL for an additional hour
T1 construct: endogenous in cells; host or cells: HeLa
Summary of the method: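 HeLa cells pretreated with compound for 1 h at 37° C, then given 50 μg/mL MMS for another hour. After methanol fixation, PAR was immunostained with DAPI nuclear counterstain; per-nucleus intensity and percent PAR-positive cells were imaged at 20× (≥1,000 cells/well). IC50 from four-parameter logistic fit.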

T1 sequence (Q86W56 whole entry): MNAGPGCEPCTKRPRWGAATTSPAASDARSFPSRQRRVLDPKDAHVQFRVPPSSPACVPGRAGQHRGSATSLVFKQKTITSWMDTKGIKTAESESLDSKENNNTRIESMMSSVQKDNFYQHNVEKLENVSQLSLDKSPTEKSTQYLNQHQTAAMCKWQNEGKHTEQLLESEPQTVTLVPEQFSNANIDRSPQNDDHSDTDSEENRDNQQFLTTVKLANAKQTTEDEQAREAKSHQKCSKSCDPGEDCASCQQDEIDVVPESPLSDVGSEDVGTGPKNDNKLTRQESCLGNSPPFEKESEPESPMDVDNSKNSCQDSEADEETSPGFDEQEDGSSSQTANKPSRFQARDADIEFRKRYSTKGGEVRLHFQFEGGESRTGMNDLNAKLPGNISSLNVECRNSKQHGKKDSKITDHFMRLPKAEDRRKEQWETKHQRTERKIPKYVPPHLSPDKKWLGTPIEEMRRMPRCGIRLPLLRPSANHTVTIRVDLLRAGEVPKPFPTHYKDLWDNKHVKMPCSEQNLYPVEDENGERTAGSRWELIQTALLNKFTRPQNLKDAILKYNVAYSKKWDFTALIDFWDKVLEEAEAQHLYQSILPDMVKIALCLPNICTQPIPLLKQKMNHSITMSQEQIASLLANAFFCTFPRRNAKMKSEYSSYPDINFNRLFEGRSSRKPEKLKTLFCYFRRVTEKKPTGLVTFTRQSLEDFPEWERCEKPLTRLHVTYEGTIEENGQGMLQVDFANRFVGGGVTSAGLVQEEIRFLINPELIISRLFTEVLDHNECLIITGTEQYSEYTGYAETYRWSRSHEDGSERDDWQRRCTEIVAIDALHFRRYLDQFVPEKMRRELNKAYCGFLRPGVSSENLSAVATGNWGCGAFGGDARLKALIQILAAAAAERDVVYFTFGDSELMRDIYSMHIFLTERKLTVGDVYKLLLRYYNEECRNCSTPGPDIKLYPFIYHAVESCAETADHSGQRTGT

| Molecule | IC50 [µM] |
| --- | --- |
| COC(=O)[C@@H]1N=C2N(Cc3cnn(C)c3)C(=O)c3cc(S(=O)(=O)NC4(C)CC4)ccc3N2[C@@H]1C [Example 293, methyl (1R,2R)-1-methyl-4-((1-methyl-1H-pyrazol-4-yl)methyl)-7-(N-(1-methylcyclopropyl)sulfamoyl)-5-oxo-1,2,4,5-tetrahydroimidazo[1,2-a]quinazoline-2-carboxylate] | 0.1 to 1 |
| CC(=O)NC[C@@H]1N=C2N(Cc3cnn(C)c3)C(=O)c3cc(S(=O)(=O)NC4(C)CC4)ccc3N2[C@@H]1C [Example 295, N-(((1R,2S)-1-methyl-4-((1-methyl-1H-pyrazol-4-yl)methyl)-7-(N-(1-methylcyclopropyl)sulfamoyl)-5-oxo-1,2,4,5-tetrahydroimidazo[1,2-a]quinazolin-2-yl)methyl)acetamide] | 0.1 to 1 |

More lines, now with the values ahead:

| IC50 [µM] | Molecule |
| --- | --- |
| 0.1 to 1 | CC(=O)N1CCN(c2cc(S(=O)(=O)NC3(C)CC3)cc3c2N2C(=NC[C@H]2C)N(Cc2cnn(C)c2)C3=O)CC1 [Example 292, (R)-9-(4-acetylpiperazin-1-yl)-1-methyl-4-((1-methyl-1H-pyrazol-4-yl)methyl)-N-(1-methylcyclopropyl)-5-oxo-1,2,4,5-tetrahydroimidazo[1,2-a]quinazoline-7-sulfonamide] |
| < 0.1 | C[C@@H]1[C@H](CO)N=C2N(Cc3cnn(C)c3)C(=O)c3cc(S(=O)(=O)NC4(C)CC4)ccc3N21 [Example 294, (1R,2R)-2-(hydroxymethyl)-1-methyl-4-((1-methyl-1H-pyrazol-4-yl)methyl)-N-(1-methylcyclopropyl)-5-oxo-1,2,4,5-tetrahydroimidazo[1,2-a]quinazoline-7-sulfonamide] |
| < 0.1 | C#C[C@@H]1CN=C2N(Cc3cnn4c3CNCC4)C(=O)c3cc(S(=O)(=O)NC4(C)CC4)cc(Cl)c3N21 [Example 297, (R)-9-chloro-1-ethynyl-N-(1-methylcyclopropyl)-5-oxo-4-((4,5,6,7-tetrahydropyrazolo[1,5-a]pyrazin-3-yl)methyl)-1,2,4,5-tetrahydroimidazo[1,2-a]quinazoline-7-sulfonamide] |

test system: sensitive cells; assay: not given; details: S-phase dependent; cited from earlier work

| Molecule | accumulation of nuclear RPA protein and induction of pan-nuclear QH2AX expression |
| --- | --- |
| PDD00017273 | S-phase dependent accumulation of nuclear RPA protein and induction of pan-nuclear QH2AX expression |
